Measured values published in patent publication US20250261639A1, “ZEALACTONE DERIVATIVES AS PLANT GROWTH REGULATORS” (SYNGENTA CROP PROTECTION AG, priority 2020, published 2025).

Experiments:
[1] = system: Corn seeds (var. NK Falkone); experiment: Corn seed germination under cold stress conditions; assay type: in vivo; settings: Zea mays, 15° C., 60% Relative Humidity; for change in vivo at 250 µM: read-out: increase of the slope of the curve at Tso (uniformity of germination) compared to untreated control; for percent reduction of T50 germination time vs untreated control at 250 µM: read-out: reduction of the Tso value (time taken for 50% germination; speed of germination) in comparison with untreated control
Method: Method: Corn seeds (var. NK Falkone, Syngenta Seeds SAS, St. Sauveur, France) were sorted by size using a sieve to eliminate round seeds. The corn seeds were placed in 24 well plates (1 seed per well, each plate was considered as one experimental unit or replicate). Germination was initiated by the addition of 250 μL of distilled water containing 0.5% DMSO per well (and the tested the substance at the given concentration). 8 replicates (i.e., 8 plates) were used for each treatment characterization. Plates were sealed using seal foil (Polyolefin Art. Nr. 900320) from HJ-BIOANALYTIK. All plates were placed in a climatic chamber at 15° C. with 60% Relative Humidity. The experiment was laid out in a completely randomized design.
Germination was followed over time by taking photographs at different time points. Image analysis was performed automatically with a macro which was developed using the Image J software. A kinetic analysis of germination was carried out by fitting a trend curve. Three parameters were calculated from the trend curve: the Tso (time taken for 50% germination; speed of germination); the slope of the curve (the uniformity of germination) and the plateau (the total percentage of germinated seeds).
The treatments with a given compound were performed at 4 concentrations 2, 10, 50, and 250 μM.

[2] = system: Corn leaf discs (variety Multitop); experiment: Dark induced senescence of corn leaf; settings: Zea mays, foliar, 192 h; leaf discs in the dark, 23° C., 75% humidity, 8 days, 0.5% DMSO; read-out: IC50 (concentration at which 50% senescence was achieved)
Method: It is known that strigolactones regulate (accelerate) leaf senescence, potentially through D14 receptor signaling. It is also known that senescence is an important process allowing reallocation of nutrients. Compounds of formula (I) were tested in a corn leaf dark induced senescence assay and compared to untreated control.
Corn plants of variety Multitop were grown in a greenhouse with relative 75% humidity and at 23-25° C. for 6 weeks. 1.4 cm diameter leaf discs were placed into 24-well plates containing a test compounds in a concentration gradient (100 μM-0.0001 μM) at a final concentration of 0.5% DMSO. Each concentration was tested in 12 replicates. Plates were sealed with seal foil. The foil was pierced to provide gas exchange in each well. The plates were placed into the completely dark climatic chamber. Plates were incubated in the chamber with 75% humidity and at 23° C. for 8 days. On days 0, 5, 6, 7 and 8 photographs were taken of each plate, and image analysis conducted with a macro developed using the ImageJ software. The image analysis was used to determine the concentration at which 50% senescence was achieved (IC50). The lower the value, the higher senescence induction potency.

Structure (SMILES)	change in vivo at 250 µM [1]	percent reduction of T50 germination time vs untreated control at 250 µM [1]	IC50 [2]
COC(=O)C(/C=C/C1CCC(F)(F)CC1)=C/OC1C=C(C)C(=O)O1 (centres unmarked) [Compound P-2, methyl (E,2E)-4-(4,4-difluorocyclohexyl)-2-[(4-methyl-5-oxo-2H-furan-2-yl)oxymethylene]but-3-enoate]	> 50%	> 5%	< 3000 nM
COC(=O)C(/C=C/C1CCCCC1)=C/OC1OC(=O)C(C)=C1C (centres unmarked) [Compound P-3, methyl (E,2E)-4-cyclohexyl-2-[(3,4-dimethyl-5-oxo-2H-furan-2-yl)oxymethylene]but-3-enoate]	> 50%	> 5%	–
COC(=O)C(/C=C/C12CC3CC(CC(C3)C1)C2)=C/OC1C=C(C)C(=O)O1 (centres unmarked) [Compound P-4, methyl (E,2E)-4-(1-adamantyl)-2-[(4-methyl-5-oxo-2H-furan-2-yl)oxymethylene]but-3-enoate]	–	> 5%	< 3000 nM
COC(=O)C(/C=C/C1(C)CCCC1)=C/OC1C=C(C)C(=O)O1 (centres unmarked) [Compound P-6, methyl (E,2E)-4-(1-methylcyclopentyl)-2-[(4-methyl-5-oxo-2H-furan-2-yl)oxymethylene]but-3-enoate]	> 50%	> 5%	< 3000 nM
COC(=O)C(/C=C/C1(C)CC1)=C/OC1C=C(C)C(=O)O1 (centres unmarked) [Compound P-7, methyl (E,2E)-4-(1-methylcyclopropyl)-2-[(4-methyl-5-oxo-2H-furan-2-yl)oxymethylene]but-3-enoate]	–	–	< 3000 nM
COC(=O)/C=C/C(=C\OC1C=C(C)C(=O)O1)C(=O)OC (centres unmarked) [Compound P-8, dimethyl (E,4E)-4-[(4-methyl-5-oxo-2H-furan-2-yl)oxymethylene]pent-2-enedioate]	> 50%	> 5%	< 3000 nM
COC(=O)/C(C=C(C)C)=C/OC1C=C(C)C(=O)O1 (centres unmarked) [Compound P-9, methyl (2E)-4-methyl-2-[(4-methyl-5-oxo-2H-furan-2-yl)oxymethylene]pent-3-enoate]	> 50%	> 5%	–
COC(=O)C(/C=C/C(C)(C)C)=C/OC1OC(=O)C(C)=C1C (centres unmarked) [Compound P-10, methyl (E,2E)-2-[(3,4-dimethyl-5-oxo-2H-furan-2-yl)oxymethylene]-5,5-dimethyl-hex-3-enoate]	> 50%	> 5%	–
COC(=O)C(/C=C/C(C)(C)OC)=C/OC1C=C(C)C(=O)O1 (centres unmarked) [Compound P-12, methyl (E,2E)-5-methoxy-5-methyl-2-[(4-methyl-5-oxo-2H-furan-2-yl)oxymethylene]hex-3-enoate]	> 50%	–	< 3000 nM
C=C(C)C1(/C=C/C(=C\OC2C=C(C)C(=O)O2)C(=O)OC)C(=O)CC1(C)C (centres unmarked) [Compound P-15, methyl (E,2E)-4-(1-isopropenyl-2,2-dimethyl-4-oxo-cyclobutyl)-2-[(4-methyl-5-oxo-2H-furan-2-yl)oxymethylene]but-3-enoate]	> 50%	> 5%	< 3000 nM
COC(=O)C(/C=C/C(C)(C)C#N)=C/OC1C=C(C)C(=O)O1 (centres unmarked) [Compound P-16, methyl (E,2E)-5-cyano-5-methyl-2-[(4-methyl-5-oxo-2H-furan-2-yl)oxymethylene]hex-3-enoate]	–	–	< 3000 nM
COC(=O)C(/C=C/C(C)(C)N(C)C(C)=O)=C/OC1C=C(C)C(=O)O1 (centres unmarked) [Compound P-17, methyl (E,2E)-5-[acetyl(methyl)amino]-5-methyl-2-[(4-methyl-5-oxo-2H-furan-2-yl)oxymethylene]hex-3-enoate]	–	–	< 3000 nM
COC(=O)C(/C=C/C(C)(C)C(=O)OC)=C/OC1C=C(C)C(=O)O1 (centres unmarked) [Compound P-19, dimethyl (E,5E)-2,2-dimethyl-5-[(4-methyl-5-oxo-2H-furan-2-yl)oxymethylene]hex-3-enedioate]	> 50%	> 5%	< 3000 nM
COC(=O)C(/C=C/C(C)(C)C(=O)N(C)C)=C/OC1C=C(C)C(=O)O1 (centres unmarked) [Compound P-20, methyl (E,2E)-6-(dimethylamino)-5,5-dimethyl-2-[(4-methyl-5-oxo-2H-furan-2-yl)oxymethylene]-6-oxo-hex-3-enoate]	–	–	< 3000 nM
